Measurements: patent US20250129101A1, “Compound, Pharmaceutical Composition Comprising the Same and Method for Treating Cancer Using the Same” (NATIONAL TSING HUA UNIVERSITY, priority 2023, published 2025)
Where two headings read alike, the source gives them in different places.

Key:
[1] = tested on: HeLa cells expressing H2B-mCherry and eGFP-tubulin; test: Live-cell imaging of intracellular microtubule distribution; type: cell-based
Experimental: For the microtubule distribution analysis, HeLa cell line stably expressing H2B-mCherry and eGFP-tubulin (a kind gift from Anthony A. Hyman, Max-Planck-Institute for Molecular Cell Biology and Genetics, Dresden, Germany) were treated with KIF2C inhibitors (10 μM DHTP or 10 μM 7S9) during imaging. Live-cell imaging was conducted on a Nikon T1 inverted fluorescence microscope (Nikon) with a 60× oil objective (Nikon), a Prime camera (Photometrics), and 37° C., 5% CO2 heat stage (Live Cell Instrument). Microtubule morphological changes were imaged at 3-min intervals. Images were obtained using ImageJ software processed with Gaussian Blur to remove the noise.

4T1 R8 cells = test: Cell viability assay, 4T1 R8 cells; type: cell-based, mouse
Experimental: (§1) MCF-7, MDA-MB-231, MDA-MB-468, Hs578T, 4T1, and HeLa cell lines stably expressing H2B-mCherry and eGFP-tubulin (kindly provided by Dr. Anthony A. Hyman, Max-Planck-Institute for Molecular Cell Biology and Genetics, Dresden, Germany) were cultured in high-glucose Dulbecco's Modified Eagle Medium (DMEM). SK-BR-3 cells were cultured in McCoy's Modified 5a Medium. Hs578T cells were cultured in high-glucose DMEM supplemented with an additional 0.01 mg/mL bovine insulin. […] All mentioned media were supplemented with 10% fetal bovine serum (Gibco) and 1% Penicillin/Streptomycin (Corning), and cells were incubated at 37° C. in a humidified atmosphere containing 5% CO2. HEK293 cells were cultured in HE300 medium (GMEP incorporated, Japan) and maintained in suspension culture with 125 rpm and 8% CO2.
(§2) The cancer cells were cultured in a 96-well plate at a confluence of 1000-2000 cells/well with indicated drugs for specific days. When the time was up, the culture medium in the plate was aspirated and replaced with a prepared CellTiter-Glo reagent/DMEM mixture (1:1 mix of CellTiter-Glo reagent and serum-supplemented DMEM). After incubation for 10 min, the luminescence (proportional to the number of living cells) was measured with an ELISA plate reader to determine the cell viability.

4T1 S1 cells [2] = test: Cell viability assay, 4T1 S1 cells; type: cell-based; conditions: Mus musculus, 72 hr, read-out: IC50, single treatment
Experimental: as §1, §2

4T1 R cells = test: Cell viability assay, chemoresistant 4T1 R cells; type: cell-based, mouse; conditions: 4T1 R versus S cells, 72 hr paclitaxel
Experimental: as §2
(§3) The expression levels of KIF2A, KIF2B, and KIF2C in these cell lines were compared using Western blotting.

4T1 S1 cells [3] = test: Colony formation assay, 4T1 S1 cells; type: cell-based, mouse; conditions: 400 nM paclitaxel
Experimental: To assess the long-term survival of breast cancer cell lines following the treatment of KIF2C knockdown or inhibition, the cells trypsinized into single-cell suspension were homogeneously seeded in 6-well cell culture plates at a density of 5000 cells per dish, supplemented with 2× complete medium (50% 4×DMEM, 20% FBS, 2% penicillin-streptomycin, ddH2O, and 2× glutaMAX™), agarose (0.6% for bottom agar layer; 0.3% for top cell layer), ddH2O, and DMEM. After incubation for 24 hr, cells were treated with indicated drugs, such as DMSO, KIF2C inhibitors, or chemotherapy drugs, and then cultured at 37° C. incubator in an atmosphere of humidified air with 5% CO2 for a further 14-30 days. When the cell colonies grew to appropriate sizes, the culture mediums were replaced with PBS for washing. After that, the plates were stained with 10% crystal violet and analyzed using Image J.

4T1 cells = test: In vivo tumor growth inhibition, 4T1 syngeneic model; parameters: species or system mouse; conditions: 4T1 tumors, BALB/c mice, paclitaxel 5 mg/kg intraperitoneally, 5on/2off two cycles
Experimental: (§4) The mice were housed at the National Health Research Institute (NHRI) Animal Center in accordance with the Institutional Animal Care and Use Committee procedures and guidelines. The 4T1-derived cells, including 4T1, 4T1 R4, and 4T1 R8, used for implantation were harvested during log phase growth and resuspended in phosphate-buffered saline. Each mouse was injected s.c. in the right flank with 5×10^5 cells. After tumor size reached 60-100 mm 3 (D1), mice were divided into groups and received treatment with vehicle or different compounds alone or in combinations. Tumor size, in mm 3, was measured twice per week and calculated from Tumor volume=(w 2×1)/2, where w=width and 1=length in mm of the tumor. The values of tumor size were expressed as mean±SEM.

4T1 R4 = test: In vivo tumor growth inhibition, 4T1 R4 syngeneic model; parameters: species or system mouse; conditions: R4 tumors, BALB/c mice, paclitaxel 15 mg/kg intraperitoneally, 5on/2off two cycles
Experimental: as §4

MDA-MB-231 R = test: Cell viability assay, chemoresistant MDA-MB-231 R cells; type: cell-based; conditions: MDA-MB-231 R versus S cells, 72 hr paclitaxel
Experimental: as §2, §3

4T1 S1 cells [4] = test: Time-lapse imaging of mitotic progression, 4T1 S1 cells; type: cell-based, mouse; conditions: paclitaxel (400 nM, FIG. 6D)
Experimental: To investigate the role of KIF2C in cell cycle progression, 4T1 cells were cultured in the 4-well chamber slide with about 50% confluence. The culture medium was replaced with a CO2-independent medium (Gibco) supplemented with 10% fetal bovine serum (Biological Industries) and 1% penicillin-streptomycin (Biowest). Then, each well of the chamber slide was treated with indicated drugs, such as DMSO, KIF2C inhibitors, or chemotherapy drugs. After that, the chamber slide was maintained in the microscope stage incubator with the supplement of humidified air with 5% CO2 at 37° C. Multiple-positional time-lapse imaging was performed using an automated Leica DM16000 inverted microscope equipped with HCX PL FL 20×/0.4 and EMCCD camera (Andor Luca R, Belfast, UK). Sequential differential interference contrast (DIC) images of cells obtained at indicated intervals were further analyzed using Metamorph software (Molecular Devices).

4T1 R4 cells = test: Cell viability assay, 4T1 R4 cells; type: cell-based, mouse
Experimental: as §1, §2

[5] = 72 hr, MTA with 2 μM 7S9, read-out: IC50 (nM), Combination
[6] = Mus musculus, 72 hr, drug alone, read-out: IC50 (nM), Single
[7] = Mus musculus, read-out: Paclitaxel IC50 (nM), C4 combination, with 10 μM C4

CC(=O)O[C@H]1C(=O)[C@@]2(C)[C@H]([C@H](OC(=O)c3ccccc3)[C@]3(O)C[C@H](OC(=O)[C@H](O)[C@@H](NC(=O)c4ccccc4)c4ccccc4)C(C)=C1C3(C)C)[C@]1(OC(C)=O)CO[C@@H]1C[C@@H]2O [Paclitaxel, paclitaxel]
intracellular microtubule distribution phenotype (in words) [1]: significant accumulation of bundled microtubules at the cell periphery
IC50 (4T1 R8 cells; [5]): 6.1 nM
IC50 (4T1 R8 cells; [6]): 1120 nM
IC50 (4T1 R8 cells; [7]): 157 nM
IC50 (4T1 S1 cells [2]): 62 nM
increase in chemoresistance (4T1 R cells): 11.8 fold
suppression of colony formation (4T1 S1 cells [3]): 80%
tumor growth inhibition (4T1 cells): 31.3%
tumor growth inhibition (4T1 R4): 41.7%
increase in chemoresistance (MDA-MB-231 R): 2.5 fold
cells died in mitosis (4T1 S1 cells [4]): Approximately 40%
IC50 (4T1 R4 cells; [5]): 6.4 nM
IC50 (4T1 R4 cells; [6]): 1540 nM
IC50 (4T1 R4 cells; [7]): 217 nM
